Measurements from the supplement of paper PMC10307832.

Tests used:
Test in all cases: relative viability (nuclei count vs DMSO), 5 days (fraction); higher = more cells survive
Dovitinib + Linsitinib = compound: CN1CCN(c2ccc3nc(-c4c(N)c5c(F)cccc5[nH]c4=O)[nH]c3c2)CC1 [Dovitinib] + C[C@]1(O)C[C@@H](c2nc(-c3ccc4ccc(-c5ccccc5)nc4c3)c3c(N)nccn32)C1 [Linsitinib] (partner 1 µM)
Outline: (§1)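 The day after seeding in 1536-well plates, lung cancer cell lines were treated by pin tool with a single drug, or with a fixed anchor-drug dose together with five library-drug doses (not always all listed) in √10 steps. After 5 days, a combined fix-and-stain solution (final 0.05% Triton X-100, 1% formaldehyde, 1 ug/ml Hoechst) was added. Nuclei counted on 4× images gave relative viability as treated counts over vehicle counts, reported as the median of duplicate plates.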

Dovitinib + Pictilisib = compound: CN1CCN(c2ccc3nc(-c4c(N)c5c(F)cccc5[nH]c4=O)[nH]c3c2)CC1 [Dovitinib] + CS(=O)(=O)N1CCN(Cc2cc3nc(-c4cccc5[nH]ncc45)nc(N4CCOCC4)c3s2)CC1 [Pictilisib] (partner 1 µM)
Outline: as §1

Dovitinib + Alpelisib = compound: CN1CCN(c2ccc3nc(-c4c(N)c5c(F)cccc5[nH]c4=O)[nH]c3c2)CC1 [Dovitinib] + Cc1nc(NC(=O)N2CCC[C@H]2C(N)=O)sc1-c1ccnc(C(C)(C)C(F)(F)F)c1 [Alpelisib] (partner 2 µM)
Outline: as §1

Dovitinib + Decitabine = compound: CN1CCN(c2ccc3nc(-c4c(N)c5c(F)cccc5[nH]c4=O)[nH]c3c2)CC1 [Dovitinib] + Nc1ncn([C@H]2C[C@H](O)[C@@H](CO)O2)c(=O)n1 [Decitabine] (partner 2 µM)
Outline: as §1

Cell Line	relative viability (Dovitinib + Linsitinib; first compound 0.02 µM)	relative viability (Dovitinib + Linsitinib; first compound 0.06325 µM)	relative viability (Dovitinib + Linsitinib; first compound 0.2 µM)	relative viability (Dovitinib + Linsitinib; first compound 0.6325 µM)	relative viability (Dovitinib + Linsitinib; first compound 2 µM)	relative viability (Dovitinib + Pictilisib; first compound 0.02 µM)	relative viability (Dovitinib + Pictilisib; first compound 0.06325 µM)	relative viability (Dovitinib + Pictilisib; first compound 0.2 µM)	relative viability (Dovitinib + Pictilisib; first compound 0.6325 µM)	relative viability (Dovitinib + Pictilisib; first compound 2 µM)	relative viability (Dovitinib + Alpelisib; first compound 0.02 µM)	relative viability (Dovitinib + Alpelisib; first compound 0.06325 µM)	relative viability (Dovitinib + Alpelisib; first compound 0.2 µM)	relative viability (Dovitinib + Alpelisib; first compound 0.6325 µM)	relative viability (Dovitinib + Alpelisib; first compound 2 µM)	relative viability (Dovitinib + Decitabine; first compound 0.02 µM)	relative viability (Dovitinib + Decitabine; first compound 0.06325 µM)	relative viability (Dovitinib + Decitabine; first compound 0.2 µM)	relative viability (Dovitinib + Decitabine; first compound 0.6325 µM)	relative viability (Dovitinib + Decitabine; first compound 2 µM)
COR-L 105	1.04	0.912	0.834	0.855	0.961	0.362	0.356	0.365	0.439	0.529	0.938	0.986	1.01	0.84	0.958	0.596	0.622	0.619	0.657	0.646
LK-2	0.688	0.604	0.484	0.608	0.565	0.525	0.546	0.475	0.516	0.57	1.22	1.06	0.974	0.959	0.628	0.267	0.333	0.295	0.384	0.268
NCI-H727	0.271	0.325	0.314	0.298	0.408	0.456	0.379	0.423	0.427	0.395	0.673	0.642	0.476	0.48	0.47	0.824	0.685	0.884	1.03	0.926
RERF-LC-KJ	0.89	0.934	0.938	0.838	0.842	0.556	0.643	0.472	0.428	0.49	0.794	0.825	0.852	0.822	0.87	0.709	0.729	0.701	0.685	0.637
NCI-H2023	0.744	0.638	0.734	0.741	0.595	0.216	0.206	0.236	0.261	0.212	0.558	0.574	0.606	0.57	0.523	0.223	0.234	0.217	0.237	0.215
NCI-H322M	0.945	0.853	0.973	0.943	0.892	0.501	0.446	0.464	0.542	0.674	0.84	0.774	0.792	0.809	0.776	0.667	0.692	0.746	0.737	0.705
NCI-H1666	0.793	0.687	0.859	0.764	0.896	0.607	0.533	0.548	0.322	0.375	1.01	0.933	1.02	0.883	1.07	0.714	0.718	0.734	0.835	0.8
NCI-H1648																0.502	0.445	0.444	0.455	0.458
NCI-H2087	0.953	0.943	1.09	1	0.825	1.05	0.907	0.845	0.907	0.892	1.35	1.31	1.02	0.989	1.01	0.312	0.307	0.269	0.357	0.329
